Activity calls are given as the source filed them.
Key:
[1] = NIH3T3 cell viability loss – ATP luminescence, mouse fibroblasts, counter-screen, dose response (AID 2010); assay type: functional, cell-based;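 further: cells exposed to compound for about 90 hours before reading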
cells [2] = test: cells
[3] = Trypanosoma cruzi growth suppression in host cells – NIH3T3 host cells, beta-gal luminescence, confirmation (AID 2044); assay type: functional, cell-based;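 further: intracellular parasites grown in NIH/3T3 mouse fibroblasts as host cells; luminescent beta-galactosidase reporter signal from transgenic T. cruzi replicating inside host cells; inhibitors lower the luminescence signal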
[4] = Luminescence Cell-Based Dose Response HTS to Identify Activators of Luciferase Translation or Activity in H4 […] Cells. [Related pubchem assays: 1829 (Project Summary), 1814 (Primary HTS)]; assay type: functional
[5] = target: Dual specificity tyrosine-phosphorylation-regulated kinase 1A (Rattus norvegicus, UniProt Q63470); assay type: biochemical, Homo sapiens
H4 = test: Luminescence Cell-Based Dose Response HTS to Identify Activators of 5'UTR Stem-Loop Driven Prion Protein mRNA Translation in H4 Neuroglioblastoma Cells. [Related pubchem assays: 1829 (Project Summary), 1814 (Primary HTS)]; assay type: functional; conditions: Homo sapiens
[6] = Luminescence Cell-Based Dose Confirmation HTS to Identify Activators of 5'UTR Stem-Loop Driven Alpha-Synuclein mRNA Translation in H4 Neuroglioblastoma Cells. [Related pubchem assays: 1829 (Project Summary), 1814 (Primary HTS)]; assay type: functional
[7] = target: DNA dC->dU-editing enzyme APOBEC-3A (Homo sapiens, UniProt P31941); test: Dose Response confirmation of small molecule APOBEC3A DNA Deaminase Inhibitors via a fluorescence-based single-stranded DNA deaminase assay. [Related pubchem assays (depositor defined):AID493011, AID493024]; assay type: functional
[8] = target: DNA dC->dU-editing enzyme APOBEC-3G (Homo sapiens, UniProt Q9HC16); assay type: functional;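 further: Dose-response counterscreen measuring inhibition of APOBEC3G DNA deaminase activity, run while confirming APOBEC3A inhibitors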
[9] = target: T1, DNA repair protein RAD52 homolog (Homo sapiens, UniProt P43351); assay type: functional, biochemical
T1 sequence (P43351 whole entry): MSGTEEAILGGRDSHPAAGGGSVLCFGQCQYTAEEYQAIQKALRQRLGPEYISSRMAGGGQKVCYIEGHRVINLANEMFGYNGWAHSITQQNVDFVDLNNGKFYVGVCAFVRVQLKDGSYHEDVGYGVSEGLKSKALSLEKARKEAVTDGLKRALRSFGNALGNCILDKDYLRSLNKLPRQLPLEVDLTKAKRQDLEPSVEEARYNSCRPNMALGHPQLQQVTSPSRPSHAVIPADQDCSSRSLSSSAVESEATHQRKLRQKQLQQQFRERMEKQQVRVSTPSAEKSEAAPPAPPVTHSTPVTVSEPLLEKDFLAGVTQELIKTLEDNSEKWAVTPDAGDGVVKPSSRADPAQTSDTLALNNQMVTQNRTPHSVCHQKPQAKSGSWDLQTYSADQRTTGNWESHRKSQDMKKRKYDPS

[10] = target: T2, Heat shock factor protein 1 (Mus musculus, UniProt P38532); test: decrease of HSF1-responsive luciferase luminescence – cell-based, NIH3T3, dose retest, confirmation (AID 2382); assay type: functional;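 further: NIH3T3 fibroblasts with HSF1-driven luciferase reporter stressed by proteasome inhibitor MG132; luminescence from HSF1-driven luciferase expression after 8 hours of MG132 stress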
T2 sequence (P38532 whole entry): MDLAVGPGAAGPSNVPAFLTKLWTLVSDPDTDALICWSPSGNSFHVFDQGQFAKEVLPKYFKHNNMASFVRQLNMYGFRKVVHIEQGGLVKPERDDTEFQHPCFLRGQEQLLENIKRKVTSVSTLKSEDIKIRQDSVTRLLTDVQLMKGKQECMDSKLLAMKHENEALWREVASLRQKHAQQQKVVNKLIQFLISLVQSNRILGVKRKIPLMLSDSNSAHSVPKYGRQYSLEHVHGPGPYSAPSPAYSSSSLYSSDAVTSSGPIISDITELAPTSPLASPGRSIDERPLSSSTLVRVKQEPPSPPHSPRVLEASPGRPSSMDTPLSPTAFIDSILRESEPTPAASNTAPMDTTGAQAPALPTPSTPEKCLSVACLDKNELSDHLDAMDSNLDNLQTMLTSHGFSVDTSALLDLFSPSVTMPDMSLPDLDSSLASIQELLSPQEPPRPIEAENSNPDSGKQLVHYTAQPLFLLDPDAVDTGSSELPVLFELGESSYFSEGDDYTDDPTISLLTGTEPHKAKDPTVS

cells [11] = test: cells; remark: listed apart in the source
[12] = viability of uninfected HEp-2 cells – cell-based, HTS, cytotoxicity control for RSV inhibitor project, dose response (AID 2410); assay type: functional; conditions: human respiratory syncytial virus
[13] = blockers of HIV-1 envelope-mediated cell-cell fusion – cherry-pick, dose response (AID 652057); assay type: functional, cell-based
[14] = target: T3, Latent membrane protein 1 (Human herpesvirus 4 (strain B95-8), UniProt P03230); test: LMP1 TES1 pathway selectivity over dsRED control – imaging, HEK293T, dual-color eGFP/dsRED, cherry-picks, selectivity assay for LMP1 NF-kB inhibitor project, dose response (AID 588398); assay type: functional, cell-based
T3 sequence (P03230 whole entry): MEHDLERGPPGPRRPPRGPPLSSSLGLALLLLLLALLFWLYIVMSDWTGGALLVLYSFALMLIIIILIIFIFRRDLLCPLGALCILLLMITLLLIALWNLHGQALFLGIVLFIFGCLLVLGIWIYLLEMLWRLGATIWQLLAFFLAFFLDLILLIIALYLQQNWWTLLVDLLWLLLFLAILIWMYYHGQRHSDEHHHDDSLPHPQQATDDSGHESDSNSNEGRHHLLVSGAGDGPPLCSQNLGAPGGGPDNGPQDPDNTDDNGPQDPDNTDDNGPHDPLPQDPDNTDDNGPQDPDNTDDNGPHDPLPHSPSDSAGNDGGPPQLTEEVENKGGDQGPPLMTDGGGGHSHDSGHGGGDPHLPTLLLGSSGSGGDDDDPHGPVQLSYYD

[15] = HIV-1 AD8 envelope cell-cell fusion blockers – cherry-pick, dose response (AID 652062); assay type: functional, cell-based;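 further: luciferase signal from cell-cell fusion driven by HIV-1 clade B AD8 Env; potency is for inhibitors of fusion seen as a drop in luminescence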
[16] = viability loss in CEM21 cells – cell-based, CellTiter-Glo luminescence, cherry-picked, cytotoxicity control for viral fusion inhibitor project, dose response (AID 652042); assay type: functional;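 further: potency for signal decrease meaning cytotoxicity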
HEK293 = test: EBV LMP1 TES2 canonical NF-kB signalling blockers – cell-based, HEK293, luciferase, cherry-pick, dose response (AID 588343); assay type: functional; conditions: Homo sapiens
[17] = blockers of HIV-1 ZM109 envelope-driven cell-cell fusion – HeLa effector, CEM target cells, luciferase, cherry-pick, dose response (AID 652058); assay type: functional, cell-based;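 further: luciferase signal from HIV-1 Env mediated cell-cell fusion of effector and target cells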
[18] = off-target signal loss in HeLa-CEM21 co-culture – HeLa F-luc CTL cells, cherry-picked, counter-screen for HIV-1 Env fusion inhibitor project, dose response (AID 652040); assay type: functional, cell-based;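 further: potency for signal decrease marking cytotoxic or nonspecific inhibition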
[19] = HEK-293T cell viability reduction – luminescence, B-cell screen hits, cytotoxicity control for BCR NF-kB inhibitor project, dose response (AID 489021); assay type: functional, cell-based;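 further: HEK-293T cells carrying an NF-kB luciferase reporter; cells exposed to compound for about 14 hours before viability readout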
cells [20] = assay type: functional
[21] = THP-1 cell cytotoxicity, dose response, cytotoxicity control for non-replicating M. tuberculosis project (AID 489025); assay type: functional
[22] = target: Eukaryotic translation initiation factor 4E (Mus musculus, UniProt P63073); test: blockers of eIF4G binding by eIF4E – biochemical, TR-FRET, dose response (AID 855); assay type: functional;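 further: potency for disrupting eIF4E binding to eIF4GI seen as loss of FRET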
[23] = NIH-3T3 fibroblast cytotoxicity, dose response, cytotoxicity control, cell-based, fluorescence, Alamar Blue, secondary assay (AID 2327); assay type: functional;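 further: NIH-3T3 mouse fibroblasts cultured with fluconazole at 8 µg/mL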
INS1 = test: INS-1E survival protection against cytokine death – cell-based, luminescence, retest, dose response (AID 449756); assay type: functional; conditions: Rattus norvegicus;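 further: cell death triggered by IL-1 beta plus TNF-alpha plus IFN-gamma mixture; protective hits raise ATP signal compared with cytokine alone wells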
[24] = fluconazole-exposed Candida albicans growth modulators – fluorescence, retest, confirmation (AID 2467); assay type: functional, cell-based
[25] = target: Induced myeloid leukemia cell differentiation protein Mcl-1 (Homo sapiens, UniProt Q07820); assay type: functional
Leucine aminopeptidase = target: T4, Leucine aminopeptidase (Plasmodium falciparum 3D7, UniProt Q8IL11); test: P. falciparum M17LAP inhibitors, primary screen, biochemical, fluorogenic H-Leu-NHMec substrate, 1536-well (AID 1619); assay type: functional
T4 sequence (Q8IL11 whole entry): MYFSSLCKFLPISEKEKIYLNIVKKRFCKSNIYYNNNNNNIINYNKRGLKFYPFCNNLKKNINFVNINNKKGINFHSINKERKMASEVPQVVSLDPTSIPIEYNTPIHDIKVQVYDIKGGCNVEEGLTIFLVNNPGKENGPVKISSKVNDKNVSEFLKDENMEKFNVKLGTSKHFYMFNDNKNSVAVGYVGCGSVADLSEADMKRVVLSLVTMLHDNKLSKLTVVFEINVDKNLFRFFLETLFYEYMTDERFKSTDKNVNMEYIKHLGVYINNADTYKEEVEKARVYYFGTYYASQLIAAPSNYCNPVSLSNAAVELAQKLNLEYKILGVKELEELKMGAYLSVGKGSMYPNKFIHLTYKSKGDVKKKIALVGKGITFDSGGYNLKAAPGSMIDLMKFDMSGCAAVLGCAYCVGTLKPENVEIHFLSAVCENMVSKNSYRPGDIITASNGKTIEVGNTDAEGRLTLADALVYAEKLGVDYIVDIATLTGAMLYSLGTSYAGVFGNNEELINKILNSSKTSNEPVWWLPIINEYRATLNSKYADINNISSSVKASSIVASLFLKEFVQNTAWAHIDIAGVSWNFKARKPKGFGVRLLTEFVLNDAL

Large T antigen = Large T antigen (Simian virus 40, UniProt P03070); assay type: functional, Betapolyomavirus macacae;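 further: Confirmatory-stage PubChem screen for compounds that inhibit SV40 T antigen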
Vero = test: cells; assay type: functional, cell-based; conditions: Chlorocebus sabaeus
Genome polyprotein = Genome polyprotein (dengue virus type 2, UniProt P29990); test: flavivirus cap methylation enzyme inhibition – biochemical, confirmation dose response, primary screen (AID 588689); assay type: functional
[26] = general cell-killing toxicity readout – plate reader, dry powder samples, cytotoxicity control for PAX8 inhibitor project, dose response (AID 743021); assay type: functional, cell-based

Chain of DNA dC->dU-editing enzyme APOBEC-3A (P31941 whole entry): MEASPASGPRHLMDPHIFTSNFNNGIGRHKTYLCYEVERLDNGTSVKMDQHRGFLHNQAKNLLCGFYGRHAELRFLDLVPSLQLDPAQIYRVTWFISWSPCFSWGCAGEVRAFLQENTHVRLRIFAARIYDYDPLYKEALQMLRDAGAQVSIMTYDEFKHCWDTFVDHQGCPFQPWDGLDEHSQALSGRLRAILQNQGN
Chain of Eukaryotic translation initiation factor 4E (P63073 whole entry): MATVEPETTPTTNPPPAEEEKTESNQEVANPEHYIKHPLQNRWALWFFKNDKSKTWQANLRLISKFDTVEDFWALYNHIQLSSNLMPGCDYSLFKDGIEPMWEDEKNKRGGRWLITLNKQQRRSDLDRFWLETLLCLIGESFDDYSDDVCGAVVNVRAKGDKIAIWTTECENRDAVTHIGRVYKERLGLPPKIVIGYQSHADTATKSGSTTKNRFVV
Chain of DNA dC->dU-editing enzyme APOBEC-3G (Q9HC16 whole entry): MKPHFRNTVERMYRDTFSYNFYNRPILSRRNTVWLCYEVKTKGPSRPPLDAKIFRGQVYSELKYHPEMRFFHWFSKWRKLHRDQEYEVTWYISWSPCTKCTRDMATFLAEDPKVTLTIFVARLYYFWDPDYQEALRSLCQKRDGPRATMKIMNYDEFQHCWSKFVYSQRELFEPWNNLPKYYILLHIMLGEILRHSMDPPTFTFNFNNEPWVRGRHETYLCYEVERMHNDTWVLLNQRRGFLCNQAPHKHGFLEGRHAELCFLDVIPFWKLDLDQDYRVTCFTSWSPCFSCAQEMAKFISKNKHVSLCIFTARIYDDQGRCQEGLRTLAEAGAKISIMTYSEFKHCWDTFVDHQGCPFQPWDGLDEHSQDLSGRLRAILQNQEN
Chain of Genome polyprotein (P29990 2492-3391 limits assumed): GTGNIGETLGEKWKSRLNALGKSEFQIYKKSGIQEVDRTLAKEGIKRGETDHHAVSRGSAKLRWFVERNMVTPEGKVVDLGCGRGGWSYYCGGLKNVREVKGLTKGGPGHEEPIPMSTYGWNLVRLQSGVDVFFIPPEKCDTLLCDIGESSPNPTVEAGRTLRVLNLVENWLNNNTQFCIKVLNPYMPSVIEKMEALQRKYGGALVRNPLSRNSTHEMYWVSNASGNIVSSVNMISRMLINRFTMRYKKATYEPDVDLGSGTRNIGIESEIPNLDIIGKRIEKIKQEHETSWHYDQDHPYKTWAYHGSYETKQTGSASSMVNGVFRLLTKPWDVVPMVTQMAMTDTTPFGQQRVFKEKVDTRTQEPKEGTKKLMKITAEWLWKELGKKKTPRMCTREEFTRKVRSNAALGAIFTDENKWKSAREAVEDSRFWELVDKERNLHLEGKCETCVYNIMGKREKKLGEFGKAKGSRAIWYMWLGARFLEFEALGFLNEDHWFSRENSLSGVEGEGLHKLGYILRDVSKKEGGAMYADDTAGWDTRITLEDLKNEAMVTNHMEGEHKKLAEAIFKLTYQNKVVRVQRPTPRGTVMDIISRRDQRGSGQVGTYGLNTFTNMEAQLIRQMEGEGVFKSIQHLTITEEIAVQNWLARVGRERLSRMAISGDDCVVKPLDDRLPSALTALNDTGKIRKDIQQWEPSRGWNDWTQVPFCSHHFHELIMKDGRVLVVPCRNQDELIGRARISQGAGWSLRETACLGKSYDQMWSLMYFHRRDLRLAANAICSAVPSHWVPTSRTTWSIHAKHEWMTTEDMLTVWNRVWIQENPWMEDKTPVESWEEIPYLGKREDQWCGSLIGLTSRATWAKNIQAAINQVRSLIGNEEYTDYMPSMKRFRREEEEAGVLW
Chain of Induced myeloid leukemia cell differentiation protein Mcl-1 (Q07820 whole entry): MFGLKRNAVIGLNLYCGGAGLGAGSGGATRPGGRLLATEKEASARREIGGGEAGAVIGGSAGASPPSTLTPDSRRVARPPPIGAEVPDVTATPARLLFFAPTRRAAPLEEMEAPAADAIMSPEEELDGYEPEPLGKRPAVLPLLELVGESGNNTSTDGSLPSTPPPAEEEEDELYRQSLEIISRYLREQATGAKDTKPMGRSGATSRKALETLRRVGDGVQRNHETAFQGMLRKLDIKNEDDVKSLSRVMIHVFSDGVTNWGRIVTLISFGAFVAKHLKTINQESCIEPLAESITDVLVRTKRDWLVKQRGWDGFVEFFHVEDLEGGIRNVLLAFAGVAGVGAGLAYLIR
Chain of Large T antigen (P03070 whole entry): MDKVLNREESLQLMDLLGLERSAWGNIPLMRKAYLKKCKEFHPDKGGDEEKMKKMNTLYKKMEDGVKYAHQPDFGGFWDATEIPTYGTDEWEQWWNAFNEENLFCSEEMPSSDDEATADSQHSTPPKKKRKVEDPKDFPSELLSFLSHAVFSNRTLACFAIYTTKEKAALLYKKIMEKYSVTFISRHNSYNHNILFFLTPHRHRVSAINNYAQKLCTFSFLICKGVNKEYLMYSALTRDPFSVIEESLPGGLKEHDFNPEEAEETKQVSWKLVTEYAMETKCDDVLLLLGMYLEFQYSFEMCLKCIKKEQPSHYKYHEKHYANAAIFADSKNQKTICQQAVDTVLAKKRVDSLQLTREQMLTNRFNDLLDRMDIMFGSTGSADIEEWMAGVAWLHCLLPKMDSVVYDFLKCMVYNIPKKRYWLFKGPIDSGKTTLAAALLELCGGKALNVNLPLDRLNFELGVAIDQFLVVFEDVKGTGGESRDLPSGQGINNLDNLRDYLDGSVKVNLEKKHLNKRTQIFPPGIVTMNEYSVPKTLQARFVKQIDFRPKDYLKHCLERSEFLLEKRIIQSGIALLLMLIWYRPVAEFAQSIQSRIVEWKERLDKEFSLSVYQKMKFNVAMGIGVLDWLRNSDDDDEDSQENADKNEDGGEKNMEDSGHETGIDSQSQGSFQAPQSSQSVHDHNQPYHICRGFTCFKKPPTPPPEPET

Cc1ccc(SCCOCCN2CC(C)OC(C)C2)cc1 (stereo not drawn)
EC50 [1]: > 60 µM (not active)
EC50 (cells [2]): 0.007 µM (active)
EC50 [3]: < 0.1 µM (active)

COc1cc(CN2CCCC(CCC(=O)NCc3ccc(C)o3)C2)cc2c1OCO2 (stereo not drawn)
EC50 [1]: > 60 µM (not active)
EC50 (cells [2]): 0.015 µM (active)
EC50 [3]: < 0.1 µM (active)

Nc1nc(N)nc(-c2ccc(Cl)cc2)n1
EC50 [4]: > 120 µM (not active)
AC50 [5]: 10.6 µM (active)
EC50 (H4): > 120 µM (not active)
EC50 [6]: 12.2 µM (active)

COc1cccc(CNC(=O)c2cccc(S(=O)(=O)N3CCN(C)CC3)c2)c1
IC50 [7]: 5.44 µM (active)
IC50 [8]: 8.69 µM (active)

C[C@]12CC[C@H](O)CC1=CCC1C2CC[C@@]2(C)C1CC[C@@H]2NC(=O)[C@@H](N)Cc1c[nH]cn1 (stereo partly drawn)
AC50 [9]: 0.952 µM (active)

CN(Cc1ccc(Cl)c(Cl)c1)C(=O)C1=CC=CN2CCS(=O)(=O)N=C12
IC50 [7]: 8.45 µM (active)
IC50 [8]: 12.2 µM (active)

COc1ccc(S(=O)(=O)N2CCN(CCO)CC2)cc1-c1nnc2c3ccccc3c(C)nn12
EC50 [10]: > 195 µM (not active)
IC50 (cells [11]): 4.08 µM (active)

COc1ccc(CCOC(=O)c2ccc(NC(=O)CC#N)cc2)cc1
CC50 [12]: > 50 µM (active)
IC50 (cells [11]): 9.43 µM (active)

COc1ccc(NC(=O)c2cc(-c3ccco3)nc3ccccc23)cn1
IC50 [7]: 16.9 µM (active)
IC50 [8]: 22.5 µM (active)

CNc1cccnc1C=NNC(N)=S
AC50 [13]: 0.457 µM (active)
AC50 [14]: 6.42 µM (active)
AC50 [15]: 1.94 µM (active)
AC50 [16]: 5.69 µM (active)
AC50 (HEK293): 2.43 µM (active)
AC50 [17]: 0.805 µM (active)
AC50 [18]: 9.89 µM (active)

COC(=O)CSc1nnc(-c2sc3ccccc3c2Cl)o1
IC50 [19]: > 80 µM (inactive)

C=CCc1cc(Cl)ccc1OCCCn1ccnc1
EC50 [1]: > 60 µM (not active)
IC50 (cells [20]): 16.7 µM (active)
EC50 [3]: 2.12 µM (active)
CC50 [21]: > 40 µM (active)

CC(NC(=O)CSc1nnc(CC(=O)Nc2ccc(Cl)c(Cl)c2)n1C)c1ccccc1 (stereo not drawn)
IC50 [22]: > 64 µM (inactive)

COc1ccc(-[n+]2c(-c3ccc(Br)cc3)cn3c2CCc2ccccc2-3)cc1
IC50 [19]: > 80 µM (inactive)
EC50 [1]: > 30 µM (not active)
EC50 [23]: > 160 µM (inactive)
AC50 (INS1): 2.15 µM (active)
EC50 [4]: > 120 µM (not active)
EC50 [24]: 1.62 µM (active)
EC50 (H4): > 120 µM (not active)
EC50 [3]: 0.424 µM (active)
EC50 [6]: > 120 µM (not active)

CC(=O)Nc1ccc(C(=O)Nc2cccc(-c3cnc4ccccc4n3)c2)cc1
IC50 [25]: 25.5 µM (not active)
IC50 [22]: 50 µM (inactive)

O=C(O)/C=C/C(=O)Nc1ccc(Oc2ccc(NC(=O)/C=C/C(=O)O)cc2)cc1
IC50 (Leucine aminopeptidase): 14.8 µM (active)
IC50 (Large T antigen): > 100 µM (active)

COc1ccc(OCc2cccc(C(=O)NN)c2)cc1
IC50 [19]: > 80 µM (inactive)
AC50 (HEK293): 3.57 µM (active)

Cc1nc(Nc2c(Cl)cccc2Cl)sc1C(=O)Nc1ccccc1
IC50 [19]: > 80 µM (inactive)

O=C(O)C1CC=CCC1C(=O)Nc1ccc(S(=O)(=O)N2CCCc3ccccc32)cc1 (stereo not drawn)
CC50 [12]: 15.7 µM (active)
IC50 (Vero): 16.4 µM (active)
IC50 (cells [11]): 2.91 µM (active)

Cc1ccc(C)c(NC(=O)C2CC(Cl)=CCC2C(=O)O)c1 (stereo not drawn)
IC50 (Leucine aminopeptidase): 18.6 µM (active)

Cc1ccc(C)c(S(=O)(=O)Nc2ccccc2C(=O)Nc2ccc(S(=O)(=O)Nc3ncccn3)cc2)c1
IC50 (Genome polyprotein): > 100 µM (active)

COc1ccc(C2(O)CCN(CC(=O)Nc3nc(-c4ccccc4)cs3)CC2)cc1
IC50 (cells [20]): 16.7 µM (active)
CC50 [21]: > 40 µM (active)

CC(=O)c1ccc(Nc2nc(C(N)Cc3ccc(N)cc3)cs2)cc1 (stereo not drawn)
AC50 [9]: 30.4 µM (active)

CCOc1ccc2ccccc2c1/C=N\NC(=O)OC
AC50 [26]: 48.5 µM (active)

O=C(O)CSc1ccccn1
IC50 [22]: > 64 µM (inactive)

Cc1ncc(CN2CCCC(CCC(=O)NCc3ccc(F)c(F)c3)C2)s1 (stereo not drawn)
EC50 [1]: > 60 µM (inconclusive)
EC50 (cells [2]): 0.14 µM (active)
EC50 [3]: < 0.1 µM (active)

— ChEMBL document CHEMBL1201862, “PubChem BioAssay data set” (2004)
